Source: a melting point compilation (Tetko et al.; mined from patent text by program, amines drawn as free bases though some values may be those of a salt)

| Compound | melting point |
| --- | --- |
| CON=C(C)c1ccc(-c2ccc(C(=O)n3ccc4cc(OC)c(OCCN(C)C)cc43)cc2)c(C)c1 | 120 to 121 °C |
| CN(C)C1CCc2[nH]c3ccccc3c2C1 (stereo unspecified) | 138 °C |
| O=C(O)CCc1cccc(Oc2ccccc2Cl)c1O | 90 to 92 °C |
| FC(F)(F)n1cc(Br)cn1 | 4 °C |
| CC(C)(C)c1ncc2cc(Cl)nc(Cl)n12 | 109 to 110 °C |
| CN(c1cccc2cc(-c3ncc(CO)s3)[nH]c12)S(=O)(=O)c1cccs1 | 201 to 202 °C |
| CC(=O)NC[C@H]1CN(c2ccc(C3=CCN(c4nnc(C)s4)CC3)c(F)c2)C(=O)O1 | 193 to 195 °C |
| CC(=O)CC(=O)NCc1ccccc1 | 84 to 86 °C |
| CCC(C)(C)C1=C(O)C(=O)c2ccccc2C1=O | 52 °C |
| O=C(OCCC1CCCCC1)c1ncn2c1[C@@H]1CCCN1C(=O)c1c(Cl)cccc1-2 | 131 to 132 °C |
| CNc1nc(Nc2ccc(Cl)c(Cl)c2)ncc1NC(C)=O | 267 °C |
| CCOC(=O)c1cc(=O)c2c(OCC(O)CSC)cccc2o1 (stereo unspecified) | 69 to 71 °C |
| COc1ccc(Cc2nc3cnc4cc(-c5ccccc5)ccc4c3n2CCOc2ccccc2)cc1 | 205 to 206 °C |
| CC(=CC=Cc1ccccc1)C(=O)C1OCC(C)(C)CO1 | 122 to 125 °C |
| CCON=C(CC)C1=C(O)CC(c2ccc3c(c2)N(CC#N)C(=O)CO3)CC1=O (stereo unspecified) | 156 to 159 °C |
| CCOc1cc(C=[N+]([O-])C2CCC2)ccc1OC | 113 °C |
| CC(C)(C)NC(=NC#N)Nc1cnc2ccccc2c1 | 228 to 229 °C |
| CN(C)c1cc(CC(=O)O)cc(Cc2nc3c(F)c(F)cc(F)c3s2)c1 | 114 to 115 °C |
| Fc1ccc(-c2csc(Nc3ccccc3C(F)(F)F)n2)cc1 | 184 °C |
| CONS(=O)(=O)c1ccc(C(F)(F)F)cc1 | 96 to 97 °C |
| O=C(Nc1ccccc1)ONC1=Nc2ccc([N+](=O)[O-])cc2C(c2ccccc2Cl)=NC1 | 201 to 203 °C |
| N=C(NO)c1nc(-c2ccc(Cl)cc2)cc(C(F)(F)F)n1 | 243 °C |
| CC(=O)N(c1ccc(C(F)(F)F)cc1)c1nccc(-c2cccc(Cl)c2)n1 | 129 to 130 °C |
| Cc1ccc(-c2cc3c(s2)CCCC(C(=O)Nc2ccc(CN(C)C4CCOCC4)cc2)=C3)cc1 | 201 to 203 °C |
| O=C1Nc2ccccc2N(C(=O)CCCCl)c2ccccc21 | 151 to 152 °C |
| CCn1c2ccccc2c2cc3ccccc3c(C=O)c21 | 95.5 to 96.5 °C |

| Compound | melting point |
| --- | --- |
| COc1c(OCc2ccccc2)ccc2cc[nH]c12 | 66 to 67 °C |
| CC(C)CCCc1c(C(C)C)nc(C(C)C)c(CO)c1-c1ccc(F)cc1 | 101 to 103 °C |
| Cc1ncnn1-c1ccc(N)cc1F | 106 to 108 °C |
| c1ccc(Sc2cc(Sc3ccccc3)cc(Sc3ccccc3)c2)cc1 | 40 to 41 °C |
| C[C@H](NC(=O)[C@@H](C)NC(=O)[C@@H](N)CC(=O)O)C1CCCC1 | 204 to 205 °C |
| CN(C)N=Cc1cc(-n2c(=O)cc(C(F)(F)F)n(C)c2=O)ccc1Cl | 170 to 171 °C |
| COc1ccc(C)cc1NC(=O)Nc1ccc(N2CCN(C(=O)Nc3ncccc3C(=O)O)CC2)cc1 | 165 to 168 °C |
| COc1ccc(C2Sc3ccccc3NC(=O)C2CO)cc1 (stereo unspecified) | 217 °C |
| Cc1cn2c(nc1=O)CCC2 | 82 °C |
| COc1ccc(-c2ccncc2)cc1 | 94 to 96 °C |
| O=C1CC2(SCCS2)C(=O)N1 | 112 to 115 °C |
| CC1CCCCC1C(=O)Nc1ccc(-c2cnc(-c3ccc(NC(=O)C4CCCCCC4)cc3)[nH]2)cc1 (stereo unspecified) | 220 to 222 °C |
| O[C@H]1c2cc3ccccc3cc2[C@H](O)c2cc3ccccc3cc21 | 235 °C |
| COC(=O)C=C(Nc1coc2cc(OC)ccc2c1=O)C(=O)OC | 134 to 138 °C |
| COC(=O)CC1(c2c(C)c(OC)c(C)c(C)c2OC)C=CC2=NCOC2=C1 (stereo unspecified) | 68 to 69 °C |
| CC(N)(C=CP(=O)(O)O)CCCc1ccc(Sc2cccc(OCc3ccccc3)c2)cc1Cl (stereo unspecified) | 243 to 245 °C |
| CCNc1nc(C)c(-c2ccnc(Nc3ccc(N4CCNCC4)cc3)n2)s1 | 245 to 247 °C |
| COc1cc2c(=O)oc(=O)[nH]c2c(OC)c1OC | 247 °C |
| N#CC(C#N)=CNc1cc(C(F)(F)F)ccc1Cl | 166 to 169 °C |
| c1ccc2c(c1)OC[C@H](CN1CCC(CNc3nc4cccnc4s3)CC1)O2 | 160 °C |
| CCCc1ccc(C(=O)C(=O)OCC)[nH]1 | 48 to 49 °C |
| CCCOc1cc2ccccc2c2c(=O)c(-c3ccc(OC)cc3)c(C)[nH]c12 | 204 to 206 °C |
| CC(C)(C)OC(=O)NC(Cc1ccccc1)C(=O)Nc1nc(CC(=O)O)cs1 (stereo unspecified) | 189 to 190 °C |
| CCc1nccn2c(-c3ccnc(NCC(C)(C)O)n3)c(-c3ccc(F)cc3F)nc12 | 164 to 165 °C |
| CS(=O)(=O)NC(=O)CCCCOc1cccc2occc12 | 110 to 112 °C |
| CCOCCc1c(N=[N+]=[N-])nc(NC(=O)NC)nc1-c1ccccc1 | 128 to 130 °C |

| Compound | melting point |
| --- | --- |
| O=C(CCc1oc(-n2cnc3ccccc32)nc1-c1ccc(Cl)cc1)N1CCS(=O)(=O)C1 | 136 to 137 °C |
| CCCCCC(C)C(C)c1cc(O)c2c3c(c(=O)oc2c1)CSC3 (stereo unspecified) | 165 to 166 °C |
| COc1ccc(CN2C(=O)C(N)C(=O)N(CCC(C)C)c3ccccc32)cc1 (stereo unspecified) | 115 to 116 °C |
| O=C(C1CN(S(=O)(=O)c2ccc3cc(Br)ccc3c2)CCN1C(=O)C1CCN(c2ccncc2)CC1)N1CCOCC1 (stereo unspecified) | 235 to 237 °C |
| CC12C=CCC1C1CCC3CC(=O)CCC3(C)C1CC2 (stereo unspecified) | 140 to 141 °C |
| O=C1c2ccc([N+](=O)[O-])cc2C(=O)c2c(O)ccc(O)c21 | 226 to 228 °C |
| O=C(O)Cc1cc(F)ccc1OCCc1ccccc1 | 99 to 101 °C |
| O=c1[nH]c2cc(F)c(NCC3CCCCO3)cc2o1 (stereo unspecified) | 185 to 186 °C |
| CCOC(=O)C(=Cc1ccco1)c1csc(N)n1 | 109 to 110 °C |
| O=C(CN1CCN(CCSc2nc3cccc(C(F)(F)F)c3o2)CC1)Nc1c(C(F)(F)F)cc(O)cc1C(F)(F)F | 176 to 177 °C |
| O=S(=O)(NCCSC1c2ccccc2COc2ccc(/C=C/c3ccc4cc(F)c(F)cc4n3)cc21)C(F)(F)F (stereo unspecified) | 84 to 87 °C |
| CC(CS)C(=O)N1CC2CCCCC2C1C(=O)O (stereo unspecified) | 119 to 129 °C |
| CCC(C)Cc1nc(-c2cc[nH]n2)nc(OC)c1-c1c(F)cc(F)cc1F (stereo unspecified) | 124 °C |
| COc1cc2c(cc1OC)C(Oc1ccccc1)CN(NC(=O)c1cc(Cl)cc(Cl)c1)CC2 (stereo unspecified) | 184 to 185 °C |
| COC(=O)c1cccc(OCCC(C#N)NC(=O)C(Cc2cccc(C)c2)NC(=O)C(c2ccccc2)c2ccccc2)c1 (stereo unspecified) | 152 to 153 °C |
| COc1ccc(C(=O)Cc2ccccc2)c(O)c1 | 87 to 88 °C |
| Cn1c2ccc(C=O)cc2c2nc3ccccc3nc21 | 228 to 230 °C |
| CS(=O)(=O)Nc1ccc(Cl)cc1C(=Cc1ccc2ccccc2c1)C(N)=O | 179 to 184 °C |
| Cn1c(CCN2CCN(c3ccccc3)CC2)nc2c3ccccc3ccc21 | 153 to 155 °C |
| N#CC1=C2C(=NC1=O)c1c(Sc3ccc(Br)cc3)ccc3c(Sc4ccc(Br)cc4)ccc2c13 | 262 to 263 °C |
| CCOc1ncnc2c(N3CCOCC3)nc(N3CCNCC3)nc12 | 168 to 170 °C |
| O=C(Nc1ccc(S(=O)(=O)Cl)cc1)c1ccccc1 | 176 to 178 °C |
| O=C(O)C[C@H](C(=O)N[C@H](CO)Cc1ccccc1)n1cc(-c2ccc(-c3ccccc3)cc2)cn1 | 154 to 159 °C |
| Cc1cc(C)c2nc(Nc3ccc(CN)cc3)n(Cc3nc(C)ccc3O)c2c1 | 255 °C |
| CCONC(CC)=C1C(=O)OC(CC)=C(Br)C1=O | 76.5 to 77.5 °C |
| Cn1c(=O)n(C)c2cc(C(=O)CSCCC(=O)O)c(Cl)cc21 | 148 to 150 °C |

| Compound | melting point |
| --- | --- |
| O=[N+]([O-])c1ccc(N2CCC(Nc3ncnc4c3ncn4[C@@H]3C[C@H](CO)[C@@H](O)[C@H]3O)C2)cc1 (stereo partly specified) | 119 to 120 °C |
| CCCc1nn(-c2ccc(C(F)(F)F)cn2)cc1CCCCOc1nn(-c2ccccc2)cc1CC(=O)O | 114 to 115 °C |
| NC(=O)C(O)C1OC(n2cnc3c(N)ncnc32)C(O)C1O (stereo unspecified) | 220 to 222 °C |
| CCOC(=O)[C@H](CC(C)C)SC[C@H](O)[C@H](CC1CCCCC1)NC(=O)[C@H](Cc1c[nH]cn1)NC(=O)[C@H](Cc1ccccc1)NC(=O)OC(C)(C)C | > 82 °C |
| COC(=O)c1nc2n(c1C)-c1ccc(Cl)cc1C(c1ccccc1F)=NC2 | 137 to 138 °C |
| O=S(=O)(Cc1ccccc1)c1cccc2c1ccn2-c1ccnc(N[C@H]2CC[C@H](O)CC2)n1 | 132 to 134 °C |
| CC(CCN(C)C1CCC(c2ccc3[nH]c(=O)oc3c2)CC1)c1ccccc1 (stereo unspecified) | 61 to 70 °C |
| COc1ccccc1Sc1ccc2c(c1)CC[C@H]1NC(=O)CC[C@]21C | 176 to 179 °C |
| O=C(CCNc1c(C(=O)O)[nH]c2cc(Cl)ccc12)c1ccc(F)c(F)c1 | 260 to 264 °C |
| CC(=O)c1ccc(NC(=O)N2CCC3(CC2)CN(S(N)(=O)=O)c2ccccc23)cc1 | 233 to 236 °C |
| Cn1ccnc1COc1cccc(Nc2cc(-c3c[nH]nc3-c3ccccn3)ccn2)c1 | 120 °C |
| CCNC(=NC#N)NCCSCc1csc(NC(=N)N)n1 | 181 to 182 °C |
| N#Cc1sc(C#N)c(Br)c1Br | 138 to 139 °C |
| CNC(=S)NCCCSc1nc(C)co1 | 73 to 74 °C |
| O=C(O)Cc1cccc(C(=O)c2cccs2)c1Cl | 112 °C |
| CCc1cc(C(=O)c2ccccc2Cl)c(-n2c(C)nnc2CCl)s1 | 109 to 110 °C |
| N#CSc1cc2sc(NC(=O)C3CC3)nc2cc1F | 256 °C |
| CCCN(c1ccccc1)c1nc(=O)c2cccnc2s1 | 141 to 142 °C |
| O=C(Nc1ccc(C(F)(F)F)cc1)Nc1ccc(C(=O)N2CCOCC2)s1 | 250 to 253 °C |
| O=C(N[C@H](Cc1ccc(C(F)(F)F)cc1)[C@@H](O)c1ccc(F)cc1)c1cccc2c1-c1ccccc1C2=O (racemic) | 231 to 232 °C |
| CC(C)(C)c1ccc2c(c1)CNC2=O | 132 to 134 °C |
| ON=C1CCOc2cc(Cl)c(Cl)cc21 | 192 to 193 °C |
| NC1CN(c2c(F)cc3c(=O)c(C(=O)O)cn(C4CC4)c3c2F)C1 | 214 to 216 °C |
